Counter-ions that a name gives are not always drawn. Like-named read-outs stand apart in the source and are kept apart here.
Tests used:
hα2C receptor = biological target: T1, hα2C receptor (Homo sapiens, UniProt P18825); test: Radioligand binding experiment for α2C-adrenergic receptor ([3H]-raulwolscine)
T1 construct: expressed in transfected cells
T1 sequence (P18825 1-462): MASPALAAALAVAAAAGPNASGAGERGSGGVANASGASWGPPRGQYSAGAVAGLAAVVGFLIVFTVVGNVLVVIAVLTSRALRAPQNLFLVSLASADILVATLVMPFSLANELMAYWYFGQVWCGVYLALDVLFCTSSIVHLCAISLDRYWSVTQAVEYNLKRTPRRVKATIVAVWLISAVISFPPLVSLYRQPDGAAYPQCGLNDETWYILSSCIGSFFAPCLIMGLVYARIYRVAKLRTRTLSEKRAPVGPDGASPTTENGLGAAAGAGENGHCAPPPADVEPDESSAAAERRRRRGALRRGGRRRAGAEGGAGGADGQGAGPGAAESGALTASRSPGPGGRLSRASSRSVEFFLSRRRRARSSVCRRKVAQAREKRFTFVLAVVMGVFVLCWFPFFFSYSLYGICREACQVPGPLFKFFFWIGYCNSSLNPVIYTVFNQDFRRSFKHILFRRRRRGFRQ
Experimental: (§1) In general, a low concentration of a radioligand with a high binding affinity for a particular receptor or transporter is incubated with a sample of a tissue preparation enriched in a particular receptor or transporter or with a preparation of cells expressing cloned human receptors in a buffered medium. During the incubation, the radioligand binds to the receptor or transporter. When equilibrium of binding is reached, the receptor bound radioactivity is separated from the non-bound radioactivity, and the receptor- or transporter-bound activity is counted. The interaction of the test compounds with the receptor is assessed in competition binding experiments. Various concentrations of the test compound are added to the incubation mixture containing the receptor- or transporter preparation and the radioligand. The test compound in proportion to its binding affinity and its concentration inhibits binding of the radioligand. The radioligand used for hα2A, hα2B and hα2C receptor binding was [^3H]-raulwolscine and for the h5-HT transporter was [^3H]paroxetine. CHO cells, stabile transfected with human adrenergic-α2A-, -α2B or α2C receptor cDNA, were cultured in Dulbecco's Modified Eagle's Medium (DMEM)/Nutrient mixture Ham's F12 (ratio 1:1)(Gibco, Gent-Belgium) supplemented with 10% heat inactivated fetal calf serum (Life Technologies, Merelbeke-Belgium) and antibiotics (100 IU/ml penicillin G, 100 μg/ml streptomycin sulphate, 110 μg/ml pyruvic acid and 100 μg/ml L-glutamine). One day before collection, cells were induced with 5 mM sodiumbutyrate. Upon 80-90% of confluence, cells were scraped in phosphate buffered saline without Ca^2+ and Mg^2+ and collected by centrifugation at 1500×g for 10 min. The cells were homogenised in Tris-HCl 50 mM using an Ultraturrax homogenizer and centrifuged for 10 min at 23,500×g. The pellet was washed once by resuspension and rehomogenization and the final pellet was resuspended in Tris-HCl, divided in 1 ml aliquots and stored at −70° C. Membranes were thawed and re-homogenized in incubation buffer (glycylglycine 25 mM, pH 8.0). In a total volume of 500 μl, 2-10 μg protein was incubated with [^3H]raulwolscine (NET-722) (New England Nuclear, USA) (1 nM final concentration) with or without competitor for 60 min at 25° C. followed by rapid filtration over GF/B filter using a Filtermate196 harvester (Packard, Meriden, Conn.). Filters were rinsed extensively with ice-cold rinsing buffer (Tris-HCl 50 mM pH 7.4). Filter-bound radioactivity was determined by scintillation counting in a Topcount (Packard, Meriden, Conn.) and results were expressed as counts per minute (cpm). Non-specific binding was determined in the presence of 1 μM oxymetazoline for hα2A- and hα2B receptors and 1 μM spiroxatrine for hα2C receptors. Data from assays in the presence of compound were calculated as a percentage of total binding measured in the absence of test compound. Inhibition curves, plotting percent of total binding versus the log value of the concentration of the test compound, were automatically generated, and sigmoidal inhibition curves were fitted using non-linear regression. The pIC50 values of test compounds were derived from individual curves.

h5-HT transporter = biological target: T2, h5-HT transporter (Homo sapiens, UniProt P31645); test: Radioligand binding experiment for 5-HT transporter ([3H]paroxetine); details: human platelet membranes, [3H]paroxetine 0.5 nM
T2 construct: Human platelet membranes (Oceanix Biosciences Corporation, Hanover, Md., USA) were thawed; tissue Oceanix Biosciences Corporation, Hanover, Md., USA; host or cells: human platelet membranes
Experimental: In general, a low concentration of a radioligand with a high binding affinity for a particular receptor or transporter is incubated with a sample of a tissue preparation enriched in a particular receptor or transporter or with a preparation of cells expressing cloned human receptors in a buffered medium. During the incubation, the radioligand binds to the receptor or transporter. When equilibrium of binding is reached, the receptor bound radioactivity is separated from the non-bound radioactivity, and the receptor- or transporter-bound activity is counted. The interaction of the test compounds with the receptor is assessed in competition binding experiments. Various concentrations of the test compound are added to the incubation mixture containing the receptor- or transporter preparation and the radioligand. The test compound in proportion to its binding affinity and its concentration inhibits binding of the radioligand. The radioligand used for hα2A, hα2B and hα2C receptor binding was [^3H]-raulwolscine and for the h5-HT transporter was [^3H]paroxetine. Human platelet membranes (Oceanix Biosciences Corporation, Hanover, Md., USA) were thawed, diluted in buffer (Tris-HCl 50 mM, 120 mM NaCl and 5 mM KCl) and quickly (max 3 s) homogenised with an Ultraturrax homogenizer. In a total volume of 250 μL, 50-100 μg protein was incubated with [^3H]paroxetine (NET-869) (New England Nuclear, USA) (0.5 nM final concentration) with or without competitor for 60 min at 25 ° C. Incubation was stopped by rapid filtration of the incubation mixture over GF/B filters, pre-wetted with 0.1% polyethyleneamine, using a Filtermate196 harvester (Packard, Meriden, Conn.). Filters were rinsed extensively with ice-cold buffer and radioactivity on the filters was counted in a Topcount liquid scintillation counter (Packard, Meriden, Conn.). Data were expressed as cpm. Imipramine (at 1 μM final concentration) was used to determine the non-specific binding. Data from assays in the presence of compound were calculated as a percentage of total binding measured in the absence of test compound. Inhibition curves, plotting percent of total binding versus the log value of the concentration of the test compound, were automatically generated, and sigmoidal inhibition curves were fitted using non-linear regression. The pIC50 values of test compounds were derived from individual curves.

hα2A receptor = biological target: T3, hα2A receptor (Homo sapiens, UniProt P08913); test: Radioligand binding experiment for α2A-adrenergic receptor ([3H]-raulwolscine); details: CHO cell membranes with human α2A receptor, [3H]raulwolscine 1 nM
T3 construct: expressed in transfected cells
T3 sequence (P08913 1-465): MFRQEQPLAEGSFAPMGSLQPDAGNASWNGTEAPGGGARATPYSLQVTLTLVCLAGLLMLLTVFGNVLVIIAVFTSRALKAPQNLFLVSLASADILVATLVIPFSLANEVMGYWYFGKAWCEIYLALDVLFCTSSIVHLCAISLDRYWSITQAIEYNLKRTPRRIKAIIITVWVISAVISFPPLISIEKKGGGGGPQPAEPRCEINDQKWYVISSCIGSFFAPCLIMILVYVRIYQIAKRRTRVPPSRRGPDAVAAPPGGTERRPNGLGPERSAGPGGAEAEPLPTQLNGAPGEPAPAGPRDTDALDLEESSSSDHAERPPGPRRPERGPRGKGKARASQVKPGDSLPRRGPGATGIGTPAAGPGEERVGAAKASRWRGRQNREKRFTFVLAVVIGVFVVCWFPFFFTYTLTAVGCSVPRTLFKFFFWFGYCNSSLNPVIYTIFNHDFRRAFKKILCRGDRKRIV
Experimental: as §1

hα2B receptor = biological target: T4, hα2B receptor (Homo sapiens, UniProt P18089); test: Radioligand binding experiment for α2B-adrenergic receptor ([3H]-raulwolscine); details: CHO cell membranes with human α2B receptor, [3H]raulwolscine 1 nM
T4 construct: expressed in transfected cells
T4 sequence (P18089 1-450): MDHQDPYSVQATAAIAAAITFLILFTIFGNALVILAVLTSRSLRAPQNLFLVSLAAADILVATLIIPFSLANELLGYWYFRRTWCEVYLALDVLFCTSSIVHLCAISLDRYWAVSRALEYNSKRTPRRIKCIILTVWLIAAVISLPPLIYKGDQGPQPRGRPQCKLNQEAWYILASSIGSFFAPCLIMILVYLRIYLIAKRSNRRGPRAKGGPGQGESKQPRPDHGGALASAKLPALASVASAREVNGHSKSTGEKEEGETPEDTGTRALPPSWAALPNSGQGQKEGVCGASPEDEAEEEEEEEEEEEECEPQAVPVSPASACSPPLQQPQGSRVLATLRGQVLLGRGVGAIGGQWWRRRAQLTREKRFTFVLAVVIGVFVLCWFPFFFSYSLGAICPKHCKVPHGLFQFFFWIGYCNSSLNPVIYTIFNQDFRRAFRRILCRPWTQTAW
Experimental: as §1

[1] = CHO cell membranes with human α2C receptor, [3H]raulwolscine 1 nM
[2] = CHO cell membranes with human α2C receptor, [3H]raulwolscine 1 nM, read-out: hα2C (pIC50) (converted)
[3] = read-out: 5-HTT (pIC50) (converted)
[4] = read-out: hα2A (pIC50) (converted)

T2 sequence (P31645 whole entry): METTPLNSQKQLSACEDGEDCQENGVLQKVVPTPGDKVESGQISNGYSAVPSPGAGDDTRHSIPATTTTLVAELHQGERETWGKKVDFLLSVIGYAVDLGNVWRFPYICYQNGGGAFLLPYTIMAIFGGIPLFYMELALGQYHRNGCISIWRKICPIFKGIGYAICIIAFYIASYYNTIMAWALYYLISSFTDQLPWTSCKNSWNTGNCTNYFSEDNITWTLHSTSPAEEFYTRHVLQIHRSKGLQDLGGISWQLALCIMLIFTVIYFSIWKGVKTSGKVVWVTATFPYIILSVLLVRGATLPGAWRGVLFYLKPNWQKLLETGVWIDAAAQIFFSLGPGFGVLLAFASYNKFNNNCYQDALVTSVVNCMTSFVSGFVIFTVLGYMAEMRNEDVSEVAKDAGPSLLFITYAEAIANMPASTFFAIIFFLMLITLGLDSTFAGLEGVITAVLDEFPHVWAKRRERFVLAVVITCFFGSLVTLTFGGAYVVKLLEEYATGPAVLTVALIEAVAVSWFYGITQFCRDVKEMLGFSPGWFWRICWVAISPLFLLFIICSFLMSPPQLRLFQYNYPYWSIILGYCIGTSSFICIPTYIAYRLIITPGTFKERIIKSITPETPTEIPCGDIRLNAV

SMILES | hα2C (pIC50) (hα2C receptor; [1]) | 5-HTT (pIC50) (h5-HT transporter) | hα2A (pIC50) (hα2A receptor) | further results
CC(=CCN1CCN(CC2ON=C3c4cc5cc[nH]c5cc4OCC32)CC1)c1ccccc1 (racemic) [Compound 6] | 8.6 | 8.3 | 8.1 | –
C/C(=C\c1ccc(F)cc1)CN1CCN(CC2ON=C3c4cc5cc[nH]c5cc4OCC32)CC1 (racemic) [Compound 3] | 8.7 | 8.2 | 7.8 | hα2B (pIC50) (hα2B receptor): 7.6
C/C(=C\c1ccccc1)CN1CCN(CC2ON=C3c4cccnc4OCC32)CC1 (stereo not shown) [Compound 22, 3-[4-(2-methyl-3-phenyl-allyl)-piperazin-1-ylmethyl]-3a,4-dihydro-3H-2,5-dioxa-1,6-diaza-cyclopenta[a]naphthalene oxalate salt] | – | – | – | IC50 (hα2C receptor; [2]): 79.4 nM; IC50 (h5-HT transporter; [3]): 6310 nM; IC50 (hα2A receptor; [4]): 631 nM
c1ccc2cc(CN3CCN(CC4ON=C5c6ccncc6OCC54)CC3)ccc2c1 (stereo not shown) [Compound 19, 3-(4-naphthalen-2-ylmethyl-piperazin-1-ylmethyl)-3a,4-dihydro-3H-2,5-dioxa-1,7-diaza-cyclopenta[a]naphthalene oxalate salt (1/1)] | – | – | – | IC50 (hα2C receptor; [2]): 39.8 nM; IC50 (h5-HT transporter; [3]): 100 nM; IC50 (hα2A receptor; [4]): 10 nM
Clc1ccc(CN2CCN(CC3ON=C4c5cc6cc[nH]c6cc5OCC43)CC2)cc1 (racemic) [Compound 5] | 7.4 | 7.8 | 6.7 | –
COC(=O)n1ccc2cc3c(cc21)OCC1C3=NOC1CN1CCN(C/C(C)=C/c2ccccc2)CC1 (racemic) [Compound 13] | 8.4 | 7.9 | 8.4 | –
C/C(=C\c1ccccc1)CN1CCN(CC2ON=C3c4cc5ccn(C)c5cc4OCC32)CC1 (stereo not shown) [Compound 7, 7-methyl-3-[4-(2-methyl-3-phenyl-allyl)-piperazin-1-ylmethyl]-3a,4-dihydro-3H,7H-2,5-dioxa-1,7-diaza-dicyclopenta[a,g]naphthlene] | – | – | – | IC50 (hα2C receptor): 0.794 nM; IC50 (h5-HT transporter; 5-HTT (pIC50)): 5.01 nM; IC50 (hα2A receptor; hα2A (pIC50)): 3.16 nM
C/C(=C\c1ccccc1)CN1CCN(CC2ON=C3c4cc5ccn(C(=O)C6CC6)c5cc4OCC32)CC1 (racemic) [Compound 12] | 8.5 | 7.7 | 8.2 | –
C/C(=C\c1ccc(F)cc1)CN1CCN(CC2ON=C3c4ccncc4OCC32)CC1.O=C(O)C(=O)O (racemic) [Compound 21] | 7.8 | 7.1 | 8.2 | –
C/C(=C\c1cccc(F)c1)CN1CCN(CC2ON=C3c4ccncc4OCC32)CC1 (racemic) [Compound 20] | 8.8 | 7.6 | 9.2 | –
CC(=O)n1ccc2cc3c(cc21)OCC1C3=NOC1CN1CCN(C/C(C)=C/c2ccccc2)CC1 (stereo not shown) [Compound 11, 1-{3-[4-(2-methyl-3-phenyl-allyl)-piperazin-1-ylmethyl]-3a,4-dihydro-3H-2,5-dioxa-1,7-diaza-dicyclopenta[a,g]naphthalen7-yl}-ethanone] | – | – | – | IC50 (hα2C receptor): 1 nM; IC50 (h5-HT transporter; 5-HTT (pIC50)): 6.31 nM; IC50 (hα2A receptor; hα2A (pIC50)): 2.51 nM
COCC(=O)n1ccc2cc3c(cc21)OCC1C3=NOC1CN1CCN(C/C(C)=C/c2ccccc2)CC1 (racemic) [Compound 14] | 8.9 | 8.4 | 8.5 | –
